# Experimental data from patent US10689377B2 (Mirati Therapeutics, Inc., priority 2017, dated 2020).
# Target: KRas G12C (Homo sapiens, UniProt P01116, G12C)
# Assay: Cellular inhibition of KRas G12C measured by Phospho-ERK in NCI-H358 cells
# Assay type: cell-based
# Details: pERK(Thr202/Tyr204) normalized with GAPDH, NCI-H358 cells, 3 hours; read-out: IC50
# Summary of the method: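 Following 8-12 h attachment, NCI-H358 cells got serially diluted compound (0.5% DMSO) for 3 hours. Cells were then fixed, permeabilized with cold methanol, and stained for pERK(Thr202/Tyr204) and GAPDH. Ratios were converted to percent of DMSO control, with IC50 obtained by four-parameter regression.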
# Chain of KRas G12C (P01116 1-188 isoform P01116-2 G12C): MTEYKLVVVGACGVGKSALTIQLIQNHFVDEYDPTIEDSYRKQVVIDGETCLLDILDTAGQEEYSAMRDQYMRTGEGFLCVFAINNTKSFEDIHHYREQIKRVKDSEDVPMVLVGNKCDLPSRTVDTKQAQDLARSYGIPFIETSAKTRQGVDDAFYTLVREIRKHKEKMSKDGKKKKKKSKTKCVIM
row,Structure (SMILES),IC50 [nM]
1,"C=CC(=O)N1CCN(c2nc(OCc3ncc[nH]3)nc3c2CCN(c2cccc4ccccc24)C3)C[C@@H]1CC#N [Example 351, 2-[(2S)-4-[2-(1H-imidazol-2-ylmethoxy)-7-(1-naphthyl)-6,8-dihydro-5H-pyrido[3,4-d]pyrimidin-4-yl]-1-prop-2-enoyl-piperazin-2-yl]acetonitrile]",0.1 to 1000
2,"C=CC(=O)N1CCN(c2nc(OC[C@@H]3CCCN3C)nc3c2CCN(c2cnccc2C2CC2)C3)C[C@@H]1CC#N [Example 352, 2-[(2S)-4-[7-(4-cyclopropyl-3-pyridyl)-2-[[(2S)-1-methylpyrrolidin-2-yl]methoxy]-6,8-dihydro-5H-pyrido[3,4-d]pyrimidin-4-yl]-1-prop-2-enoyl-piperazin-2-yl]acetonitrile]",0.1 to 1000
3,"C=CC(=O)N1CCN(c2nc(OC[C@@H]3CCCN3C)nc3c2CCN(c2cccc4ccccc24)C3)[C@H](C)C1 [Example 353, 1-[(3R)-3-methyl-4-[2-[[(2S)-1-methylpyrrolidin-2-yl]methoxy]-7-(1-naphthyl)-6,8-dihydro-5H-pyrido[3,4-d]pyrimidin-4-yl]piperazin-1-yl]prop-2-en-1-one]",> 1000
4,"C=CC(=O)N1CCN(c2nc(OC[C@@H]3CCCN3C)nc3c2CCN(c2cccc4ccccc24)C3)C(C)(C)C1 [Example 354, 1-[3,3-dimethyl-4-[2-[[(2S)-1-methylpyrrolidin-2-yl]methoxy]-7-(1-naphthyl)-6,8-dihydro-5H-pyrido[3,4-d]pyrimidin-4-yl]piperazin-1-yl]prop-2-en-1-one]",> 1000
5,"C=CC(=O)N1CCN(c2nc(OC[C@@H]3C[C@@H](F)CN3C)nc3c2CCN(c2cc(OC)cc4ccccc24)C3)CC1 [Example 355, 1-[4-[2-[[(2S,4R)-4-fluoro-1-methyl-pyrrolidin-2-yl]methoxy]-7-(3-methoxy-1-naphthyl)-6,8-dihydro-5H-pyrido[3,4-d]pyrimidin-4-yl]piperazin-1-yl]prop-2-en-1-one]",> 1000
6,"C=CC(=O)N1CCN(c2nc(OC[C@@H]3C[C@@H](OC)CN3C)nc3c2CCN(c2cc(OC)cc4ccccc24)C3)CC1 [Example 356, 1-[4-[2-[[(2S,4R)-4-methoxy-1-methyl-pyrrolidin-2-yl]methoxy]-7-(3-methoxy-1-naphthyl)-6,8-dihydro-5H-pyrido[3,4-d]pyrimidin-4-yl]piperazin-1-yl]prop-2-en-1-one]",> 1000
7,"C=CC(=O)N1CCN(c2nc(OC[C@@H]3C[C@@H](F)CN3C)nc3c2CCN(c2cc(O)cc4ccccc24)C3)CC1 [Example 357, 1-[4-[2-[[(2S,4R)-4-fluoro-1-methyl-pyrrolidin-2-yl]methoxy]-7-(3-hydroxy-1-naphthyl)-6,8-dihydro-5H-pyrido[3,4-d]pyrimidin-4-yl]piperazin-1-yl]prop-2-en-1-one]",0.1 to 1000
8,"C#CC[C@H]1CN(c2nc(OC[C@@H]3CCCN3C)nc3c2CCN(c2cccc4ccccc24)C3)CCN1C(=O)C=C [Example 358, 1-[(2S)-4-[2-[[(2S)-1-methylpyrrolidin-2-yl]methoxy]-7-(1-naphthyl)-6,8-dihydro-5H-pyrido[3,4-d]pyrimidin-4-yl]-2-prop-2-ynyl-piperazin-1-yl]prop-2-en-1-one]",0.1 to 1000
9,"C=CC(=O)N1CCN(c2nc(OC[C@@H]3CCCN3C)nc3c2CCN(c2cccc4cccc(CC)c24)C3)C[C@@H]1CC#N [Example 360, 2-[(2S)-4-[7-(8-ethyl-1-naphthyl)-2-[[(2S)-1-methylpyrrolidin-2-yl]methoxy]-6,8-dihydro-5H-pyrido[3,4-d]pyrimidin-4-yl]-1-prop-2-enoyl-piperazin-2-yl]acetonitrile]",0.1 to 1000
10,"C=CC(=O)N1CCN(c2nc(OC[C@@H]3CCN(C)C3)nc3c2CCN(c2cccc4cccc(Cl)c24)C3)C[C@@H]1CC#N [Example 361, 2-[(2S)-4-[7-(8-chloro-1-naphthyl)-2-[[(3R)-1-methylpyrrolidin-3-yl]methoxy]-6,8-dihydro-5H-pyrido[3,4-d]pyrimidin-4-yl]-1-prop-2-enoyl-piperazin-2-yl]acetonitrile]",0.1 to 1000
11,"C=CC(=O)N1CCN(c2nc(OCCN3CCCCC3)nc3c2CCN(c2cccc4cccc(Cl)c24)C3)C[C@@H]1CC#N [Example 362, 2-[(2S)-4-[7-(8-chloro-1-naphthyl)-2-[2-(1-piperidyl)ethoxy]-6,8-dihydro-5H-pyrido[3,4-d]pyrimidin-4-yl]-1-prop-2-enoyl-piperazin-2-yl]acetonitrile]",0.1 to 1000
12,"C=CC(=O)N1CCN(c2nc(OC[C@H]3CN(C)CCO3)nc3c2CCN(c2cccc4cccc(Cl)c24)C3)C[C@@H]1CC#N [Example 363, 2-[(2S)-4-[7-(8-chloro-1-naphthyl)-2-[[(2R)-4-methylmorpholin-2-yl]methoxy]-6,8-dihydro-5H-pyrido[3,4-d]pyrimidin-4-yl]-1-prop-2-enoyl-piperazin-2-yl]acetonitrile]",0.1 to 1000
13,"C=CC(=O)N1CCN(c2nc(OC[C@@H]3CCCN3C)nc3c2CCN(c2cccc(C)c2C(F)(F)F)C3)C[C@@H]1CC#N [Example 364, 2-[(2S)-4-[2-[[(2S)-1-methylpyrrolidin-2-yl]methoxy]-7-[3-methyl-2-(trifluoromethyl)phenyl]-6,8-dihydro-5H-pyrido[3,4-d]pyrimidin-4-yl]-1-prop-2-enoyl-piperazin-2-yl]acetonitrile]",0.1 to 1000
14,"C=CC(=O)N1CCN(c2nc(OCCCN3C[C@@H]4C[C@H]3CO4)nc3c2CCN(c2cccc4cccc(Cl)c24)C3)C[C@@H]1CC#N [Example 365, 2-[(2S)-4-[7-(8-chloro-1-naphthyl)-2-[3-[(1S,4S)-2-oxa-5-azabicyclo[2.2.1]heptan-5-yl]propoxy]-6,8-dihydro-5H-pyrido[3,4-d]pyrimidin-4-yl]-1-prop-2-enoyl-piperazin-2-yl]acetonitrile]",0.1 to 1000
15,"C=CC(=O)N1CCN(c2nc(OC[C@@H]3CC(F)(F)CN3C)nc3c2CCN(c2cccc4cccc(Cl)c24)C3)C[C@@H]1CC#N [Example 366, 2-[(2S)-4-[7-(8-chloro-1-naphthyl)-2-[[(2S)-4,4-difluoro-1-methyl-pyrrolidin-2-yl]methoxy]-6,8-dihydro-5H-pyrido[3,4-d]pyrimidin-4-yl]-1-prop-2-enoyl-piperazin-2-yl]acetonitrile]",0.1 to 1000
16,"C=CC(=O)N1C[C@H](C)N(c2nc(OC[C@@H]3CCCN3C)nc3c2CCN(c2cccc4ccccc24)C3)C[C@@H]1CC#N [Example 368, 2-((2S,5S)-1-acryloyl-5-methyl-4-(2-(((S)-1-methylpyrrolidin-2-yl)methoxy)-7-(naphthalen-1-yl)-5,6,7,8-tetrahydropyrido[3,4-d]pyrimidin-4-yl)piperazin-2-yl)acetonitrile]",> 1000
17,"C=CC(=O)N1CCN(c2nc(OCCCN3C[C@@H]4C[C@H]3CO4)nc3c2CCN(c2cccc4cccc(C)c24)C3)C[C@@H]1CC#N [Example 369, 2-((S)-4-(2-(3-((1S,4S)-2-oxa-5-azabicyclo[2.2.1]heptan-5-yl)propoxy)-7-(8-methylnaphthalen-1-yl)-5,6,7,8-tetrahydropyrido[3,4-d]pyrimidin-4-yl)-1-acryloylpiperazin-2-yl)acetonitrile]",0.1 to 1000
18,"C=CC(=O)N1CCN(c2nc(OCCCN3CCOCC3)nc3c2CCN(c2cccc4cccc(C)c24)C3)C[C@@H]1CC#N [Example 370, (S)-2-(1-acryloyl-4-(7-(8-methylnaphthalen-1-yl)-2-(3-morpholinopropoxy)-5,6,7,8-tetrahydropyrido[3,4-d]pyrimidin-4-yl)piperazin-2-yl)acetonitrile]",0.1 to 1000
19,"C=CC(=O)N1CCN(c2nc(OCCC(=O)N(C)C)nc3c2CCN(c2cccc4cccc(C)c24)C3)C[C@@H]1CC#N [Example 371, (S)-3-((4-(4-acryloyl-3-(cyanomethyl)piperazin-1-yl)-7-(8-methylnaphthalen-1-yl)-5,6,7,8-tetrahydropyrido[3,4-d]pyrimidin-2-yl)oxy)-N,N-dimethylpropanamide]",0.1 to 1000
20,"C=CC(=O)N1CCN(c2nc(OC[C@@H]3CCCN3C)nc3c2CCN(c2ccccc2CC(F)(F)F)C3)CC1CC#N (stereo partly drawn) [Example 374, 2-(1-acryloyl-4-(2-(((S)-1-methylpyrrolidin-2-yl)methoxy)-7-(2-(2,2,2-trifluoroethyl)phenyl)-5,6,7,8-tetrahydropyrido[3,4-d]pyrimidin-4-yl)piperazin-2-yl)acetonitrile]",> 1000
21,"C=CC(=O)N1CCN(c2nc(OC[C@@H]3CCCN3C)nc3c2CCN(c2ccncc2C(F)(F)F)C3)CC1CC#N (stereo partly drawn) [Example 375, 2-(1-acryloyl-4-(2-(((S)-1-methylpyrrolidin-2-yl)methoxy)-7-(3-(trifluoromethyl)pyridin-4-yl)-5,6,7,8-tetrahydropyrido[3,4-d]pyrimidin-4-yl)piperazin-2-yl)acetonitrile]",> 1000
22,"CC#CC(=O)N1CCN(c2nc(OC[C@@H]3CCCN3C)nc3c2CCN(c2cccc4ccccc24)C3)CC1CC#N (stereo partly drawn) [Example 376, 2-(1-(but-2-ynoyl)-4-(2-(((S)-1-methylpyrrolidin-2-yl)methoxy)-7-(naphthalen-1-yl)-5,6,7,8-tetrahydropyrido[3,4-d]pyrimidin-4-yl)piperazin-2-yl)acetonitrile 2,2,2-trifluoroacetate]",0.1 to 1000
23,"C=CC(=O)N1CCN(c2nc(OC[C@@H]3CCCCN3C)nc3c2CCN(c2cccc4ccccc24)C3)C[C@@H]1CC#N [Example 377, 2-((S)-1-acryloyl-4-(2-(((S)-1-methylpiperidin-2-yl)methoxy)-7-(naphthalen-1-yl)-5,6,7,8-tetrahydropyrido[3,4-d]pyrimidin-4-yl)piperazin-2-yl)acetonitrile]",0.1 to 1000
24,"C=CC(=O)N1C[C@@H](C)N(c2nc(OC[C@@H]3CCCN3C)nc3c2CCN(c2cccc4ccccc24)C3)C[C@@H]1CC#N [Example 378, 2-((2S,5R)-1-acryloyl-5-methyl-4-(2-(((S)-1-methylpyrrolidin-2-yl)methoxy)-7-(naphthalen-1-yl)-5,6,7,8-tetrahydropyrido[3,4-d]pyrimidin-4-yl)piperazin-2-yl)acetonitrile]",0.1 to 1000
